Series [1] relates to T. b. brucei Lister strain 427 bloodstream form (BSF). Briefly: In vitro activity assay for T. brucei (resazurin growth inhibition). Conditions: Trypanosoma brucei. It counts as cell-based.
Series [2] relates to T. cruzi Dm28c epimastigotes. Briefly: T. cruzi epimastigotes assay (resazurin). Format: cell-based. Conditions: Trypanosoma cruzi, read-out: T. cruzi Dm28c EC50 (EPI). As to the method: The exponential growth phase of epimastigotes were treated with different concentrations of drugs or 0.1% DMSO as negative control and incubated for 3 days at 28 °C. The viability of parasites was quantified with resazurin as described in the T. brucei assay.
A general note: Alamar Blue is a resazurin reagent that responds to reducing activity.

In series [3] the test system is intracellular T. cruzi Dm28c amastigotes in U2OS. Briefly: T. cruzi intracellular amastigotes assay in U2OS (image based). To be noted: Trypanosoma cruzi; for EC50: read-out: T. cruzi Dm28c EC50 (AMA). Format: cell-based. How it is done:
(§1) U2OS human osteosarcoma cells were maintained in DMEM supplemented with high glucose, 10% FBS, and 1% P/S at 37 °C with 5% CO2 in air. […] Cell images were acquired by an automated image analyzer (Operetta, Perkin Elmer Technology, Waltham, MA, USA); analysis included at least 1000 cells in five fields per well. For the imaging of infected cells and parasites, Draq-5 was observed under a 20× air objective. An image analysis algorithm (Columbus, Perkin Elmer Technology) was used to detect the Draq-5 signal in the nuclei of cells and parasites as described in a previous article and shown in Supplementary Figure S1 [20]. The number of parasites was defined by the value of the number of parasites in infected cells of the acquired image.

Series [4] in a line: Host cell toxicity in the T. cruzi amastigote assay. Format: cell-based. To be noted: human, amastigote host cells; read-out: T. cruzi Dm28c CC50 (U2OS). As to the method: as §1
For series [5], the system named is L. donovani promastigotes. Briefly: L. donovani promastigotes assay (resazurin). It counts as cell-based. To be noted: for EC50: read-out: L. donovani EC50 (PRO).
The subject of the next series is T. cruzi Dm28c. Briefly: T. cruzi acute in vivo mouse model. More on the design: species or system BALB/c mice. To be noted: 100 mg/kg p.o. An excerpt:
BALB/c mice were infected with TCT of T. cruzi Dm28c (10^7 cells) by i.p. injection. Five days post-infection, infected mice were sacrificed to collect BSF of T. cruzi. BALB/c mice were intraperitoneally infected with BSF of T. cruzi Dm28c (5 × 10^4 cells). Five days post-infection, BALB/c mice were infected with previously collected 2nd-round BSF cells (3 × 10^4 cells). Mice were divided into groups (n = 10) and treated orally with drugs for 5 consecutive days for 2 weeks by starting from day 2 post-infection administration of DPBS, 100 mg/kg of benznidazole, or 100 mg/kg of SQ109 via p.o. route, respectively. Parasitemia was evaluated every 2 days for 5 weeks by blood collection from the mouse tail vein, and survival was monitored for 2 months. Mice showing impaired health status were euthanized.

Series [6] deals with intracellular L. donovani amastigotes in THP-1. Briefly: L. donovani intracellular amastigotes assay in THP-1 (image based). It counts as cell-based. Conditions: Leishmania donovani, 72 h; differentiated THP-1 host cells, 3 days of compound incubation; Figure 2F.
In series [7] the test system is THP-1 human monocyte cell line. Briefly: Host cell toxicity in the L. donovani amastigote assay. Format: cell-based. Conditions: 3 days of compound incubation; Figure 2F. How it is done: The THP-1 human monocyte cell line was grown in RPMI-1640 medium (Welgene, Gyeongsangbuk-do, Republic of Korea) supplemented with 10% FBS and 1% P/S. For differentiation, THP-1 cells were treated for 3 days with 50 ng/mL of PMA [20]. […] An image analysis was performed as described in the T. cruzi assay (Figure S2).

For another series, the system named is L. donovani amastigotes. Briefly: L. donovani (VL) in vivo mouse model, liver LDU. Set-up: species or system BALB/c mice. Conditions: 30 mg/kg. How it is done: BALB/c mice (n = 5) were injected with 2 × 10^7 hamster spleen-derived L. donovani amastigotes via the retro-orbital venous sinus route. From day 7 post-infection, groups of mice were treated using the drug vehicle only, miltefosine (30 mg/kg), or SQ109 (30, 50, 100 mg/kg). On day 16 post-infection, all animals were humanely euthanized and assessed microscopically using Giemsa-stained liver imprints. […] The LDU values for the drug-treated samples were compared to those of the untreated samples.

A further series concerns T. cruzi. Set-up: method as in earlier work. To be noted: amiodarone acting alone; reported previously; ref 5 (b3); cited from earlier work.
[8] abbreviates: bloodstream forms, read-out: T. brucei BSF EC50 (converted).
Setting [9] is: Leishmania donovani, promastigotes.

Read-outs that look alike come from different tables or passages of the source.

We go through 20 compounds from publication PMC8944987, “In Vivo Efficacy of SQ109 against Leishmania donovani, Trypanosoma spp. and Toxoplasma gondii and In Vitro Activity of SQ109 Metabolites” (Biomedicines, 2022).

A word on the EC50: it is the midpoint of the concentration-response curve. The CC50 is the concentration that lowers cell viability or growth by half. As a reminder, the IC50 is the concentration that gives 50% inhibition.

As to `CC(C)=CCC/C(C)=C/C=O` [Compound 13], the EC50 in [1] (setting [8]) is 2.3 µM; in series [2] (epimastigotes) it was above 100 µM; in series [3] (amastigotes in U2OS) it was above 100 µM; in series [5] (setting [9]) it was above 100 µM. For the same compound, the CC50 at 3 days in [4] was above 100 µM.
Turning to `C/C(=C\CC/C(C)=C/CNCCNC1C2CC3CC(C2)CC1C3)CO` (centres unmarked) [Compound 9], the EC50 was 5.4 µM in series [1] (setting [8]), 28 µM in [2] (epimastigotes), 4.9 µM in series [3] (amastigotes in U2OS) and 2.9 µM in [5] (setting [9]). Further, the CC50 at 3 days in [4] amounted to 27 µM.
Consider `CC(C)=CCC/C(C)=C/CNCCNC1C2CC3CC1CC(C2)C3O` (centres unmarked) [Compound 23], for which the EC50 in series [1] (setting [8]) is 1.8 µM; in series [2] (epimastigotes), 20 µM; in [3] (amastigotes in U2OS), 4.3 µM; in [5] (setting [9]) it was 2.3 µM. Besides, the CC50 at 3 days in series [4] was determined as 17 µM.
Take `O=C(Cn1ccnc1[N+](=O)[O-])NCc1ccccc1` [benznidazole]: the IC50 in [3] (72 h, U2OS host cells, 3 days of compound incubation, Figure 2D, read-out: IC50, intracellular T. cruzi amastigote survival) turned out to be 1.71 µM. For the same compound, the “survival of T. cruzi infected mice, in words” value in the series with T. cruzi Dm28c (40 days after infection) is reported as “protected all the mice from death”. In the series with T. cruzi Dm28c (entire experimental period), the “parasitemia, in words” value is “complete suppression of parasitemia”.
In the case of `CC(C)=CCCC1(C)CC=NO1` (centres unmarked) [Compound 15b], the EC50 in [1] (setting [8]) is above 200 µM; in series [2] (epimastigotes), above 100 µM; in series [3] (amastigotes in U2OS) it was above 100 µM; in [5] (setting [9]) it was above 100 µM. Further, in [4], the CC50 at 3 days is above 100 µM.
On to `N=C(N)c1ccc(OCCCCCOc2ccc(C(=N)N)cc2)cc1` [pentamidine, reference compound], for which the IC50 in series [1] (3 days (72 h) of compound incubation, Figure 2A, read-out: IC50, T. brucei trypomastigote viability) was 0.15 µM.
As to `NCCNC1C2CC3CC(C2)CC1C3` (centres unmarked) [Compound 7], the EC50 in series [1] (setting [8]) is 4.6 µM; in series [2] (epimastigotes) it was 56 µM; in series [3] (amastigotes in U2OS), 25 µM; in series [5] (setting [9]), 22 µM. For the same compound, in series [4], the CC50 at 3 days was above 100 µM.
Turning to `CC(C)=CCC/C(C)=C/CNCCNC1C2CC3CC(C2)C(O)C1C3` (centres unmarked) [Compound 24], the EC50 in [1] (setting [8]) was 1.8 µM; in series [2] (epimastigotes) it was 14 µM; in [3] (amastigotes in U2OS), 3.2 µM; in series [5] (setting [9]), 1.1 µM. For the same compound, the CC50 at 3 days in series [4] was determined as 14 µM.
Take `CC(C)=CCCC(C)=CC=NO` [Compound 15a]: the EC50 in series [1] (setting [8]) is above 200 µM; in [2] (epimastigotes) it was above 100 µM; in series [3] (amastigotes in U2OS) it was above 100 µM; in [5] (setting [9]), above 100 µM. In series [4], the CC50 at 3 days is above 100 µM.
On to `NC1C2CC3CC(C2)CC1C3` (centres unmarked) [Compound 18], for which the EC50 is 71 µM in series [1] (setting [8]), above 100 µM in series [2] (epimastigotes), 50 µM in series [3] (amastigotes in U2OS) and 51 µM in [5] (setting [9]). Further, the CC50 at 3 days in [4] is above 100 µM.
As for `O=C1C2CC3CC(C2)CC1C3` [Compound 19], the EC50 in series [1] (read-out: T. brucei BSF EC50) is above 200 µM; in [2], above 100 µM; in series [3] (U2OS), above 100 µM; in [5] (Leishmania donovani), above 100 µM. Also, in series [4], the CC50 at 3 days is above 100 µM.
With `CCCCCCCCCCCCCCCCOP(=O)([O-])OCC[N+](C)(C)C` [miltefosine], the IC50 was 0.171 µM in series [5] (Leishmania donovani, 72 h, Figure 2E, read-out: IC50, L. donovani promastigote growth) and 1.51 µM in series [6]. Also, the “host cell (THP-1) toxicity, in words” value in series [7] is “no host cell toxicity was observed at the highest tested dose”. Also, the “parasite burden in liver (LDU)” value with L. donovani amastigotes (5 days of treatment) is recorded as 142 ± 24 LDU. The parasite reduction in the series on L. donovani amastigotes (versus vehicle-treated group) stood at 87.5%.
Regarding `CC(C)=CCC/C(C)=C/CNCCNC1C2CC3CC(C2)CC1(O)C3` (centres unmarked) [Compound 21], the EC50 was 3.2 µM in series [1] (setting [8]); 14 µM in [2] (epimastigotes); 3 µM in [3] (amastigotes in U2OS); 1.27 µM in series [5] (setting [9]); 1.3 µM in series [5] (promastigotes). Besides, the CC50 at 3 days in [4] came out at 6.8 µM.
With `C/C(=C\CNCCNC1C2CC3CC(C2)CC1C3)CCC(=O)C(C)C` (centres unmarked) [Compound 12], the EC50 in series [1] (setting [8]) was 2 µM; in [2] (epimastigotes) it was 45 µM; in series [3] (amastigotes in U2OS) it was 6.9 µM; in series [5] (setting [9]) it was 0.55 µM. The CC50 at 3 days in series [4] was determined as 32 µM.
Turning to `CC(C)=CCC/C(C)=C/C(=O)O` [Compound 14], the EC50 in series [1] (setting [8]) was 13 µM; in series [2] (epimastigotes), above 100 µM; in [3] (amastigotes in U2OS), above 100 µM; in series [5] (setting [9]), above 100 µM. For the same compound, the CC50 at 3 days in [4] was above 100 µM.
As to `ON=C1C2CC3CC(C2)CC1C3` [Compound 16], the EC50 was above 200 µM in series [1] (setting [8]), above 100 µM in series [2] (epimastigotes), above 100 µM in series [3] (amastigotes in U2OS) and above 100 µM in series [5] (setting [9]). In series [4], the CC50 at 3 days is above 100 µM.
Take `CC(C)=CCC/C(C)=C/CNCCN` [Compound 20]: the EC50 is 2.2 µM in series [1] (setting [8]), above 100 µM in series [2] (epimastigotes), above 100 µM in series [3] (amastigotes in U2OS) and 6 µM in series [5] (setting [9]). Besides, the CC50 at 3 days in series [4] is above 100 µM.
With `CC(C)=CCC/C(C)=C/CN` [Compound 17], the EC50 was 32 µM in series [1] (setting [8]), above 100 µM in series [2] (epimastigotes), 40 µM in series [3] (amastigotes in U2OS) and 21 µM in [5] (setting [9]). The CC50 at 3 days in series [4] is above 100 µM.
With `CCCCc1oc2ccccc2c1C(=O)c1cc(I)c(OCCN(CC)CC)c(I)c1` [amiodarone], the “survival in T. cruzi infection” value with T. cruzi is 40%.
Turning to `CC(C)=CCC/C(C)=C/CNCCNC1C2CC3CC1CC(O)(C3)C2` (centres unmarked) [Compound 22], the EC50 in [1] (setting [8]) was 2.9 µM; in [2] (epimastigotes) it was 23 µM; in series [3] (amastigotes in U2OS) it was 7.5 µM; in series [5] (setting [9]), 3.54 µM; in series [5] (promastigotes), 3.5 µM. The CC50 at 3 days in [4] was 29 µM.
